According to patent US20240199647A1, “ANTI-VIRAL COMPOUNDS” (Aligos Therapeutics, Inc., priority 2022, published 2024):
Read-outs that look alike come from different tables or passages of the source.

Legend:
[1] = tested on: SARS-CoV-2 B.1.1.7 lineage; assay: microbe, parasite or virus in culture; type: cell-based; settings: Severe acute respiratory syndrome coronavirus 2, Table C, SARS-CoV-2 B.1.1.7 in A549-dual_ACE2_TMPRSS2 cells, read-out: A549-dual_ACE2_TMPRSS2 (EC50)
[2] = Cytotoxicity in HeLa cells without addition of OC43 virus (in parallel); settings: human, HeLa cells, without OC43 virus
in vitro = settings: human
[3] = tested on: human beta-coronavirus OC43; assay: OC43 Coronavirus Assay in HeLa cells (antiviral, cytopathic effect, cell-titer-glo); type: cell-based; settings: Betacoronavirus 1, OC43, HeLa, Table B, OC43 coronavirus in HeLa cells, read-out: EC50
SARS-Cov-2 3CLpro = SARS-Cov-2 3CLpro (Severe acute respiratory syndrome coronavirus 2, UniProt P0DTD1); assay: biochemical; settings: Table A, class symbols, read-out: SARS-Cov-2 (IC50)

Row | Structure (SMILES) | EC50 ([1]; cells given as a bound) | CC50 at 6 days [2] | CC50 (in vitro) | EC50 ([3]; cells given as a bound) | IC50 (SARS-Cov-2 3CLpro) | EC50 ([1]; class symbols) | EC50 ([3]; class symbols)
1 | Cc1nnn(C(CC2CC2)C(=O)N(C)[C@@H](CC2CC2)C(=O)N2C[C@@]3(C[C@H]2C#N)Oc2cc(F)cc(F)c2NC3=O)c1C (relative stereo) [Compound 117, (S*)—N—((S)-1-((2R,5'S)-5′-cyano-5,7-difluoro-3-oxo-3,4-dihydrospiro[benzo[b][1,4]oxazine-2,3′-pyrrolidin]-1′-yl)-3-cyclopropyl-1-oxopropan-2-yl)-3-cyclopropyl-2-(4,5-dimethyl-1H-1,2,3-triazol-1-yl)-N-methylpropanamide] | > 1000 nM | > 10 µM | > 1000 nM | > 10000 nM | 200 to 2000 nM |  | 
2 | CN(C(=O)[C@H](CC1CC1)NC(=O)C(F)(F)F)[C@@H](CC1CC1)C(=O)N1C[C@]2(C[C@H]1C#N)C(=O)NCc1ccccc12 (single isomer, unassigned) [Compound 122] |  | > 10 µM | > 1000 nM |  | < 20 nM | < 100 nM | < 100 nM
3 | CN(C(=O)[C@H](CC1CC1)NC(=O)C(F)(F)F)[C@@H](CC1CC1)C(=O)N1C[C@@]2(C[C@H]1C#N)Oc1cc(F)cc(C#N)c1NC2=O (single isomer, unassigned) [Example 35] |  | > 10 µM | > 1000 nM |  | 20 to 200 nM | 100 to 1000 nM | 1000 to 10000 nM
4 | CN(C(=O)[C@H](CC1CC1)NC(=O)C(F)(F)F)C(CC1CC1)C(=O)N1C[C@@]2(C[C@H]1C#N)Oc1cc(S(C)(=O)=O)ccc1NC2=O (stereo in doubt) [Compound 110, (S)—N—((S)-1-((2R,5'S)-5′-cyano-7-(methylsulfonyl)-3-oxo-3,4-dihydrospiro[benzo[b][1,4]oxazine-2,3′-pyrrolidin]-1′-yl)-3-cyclopropyl-1-oxopropan-2-yl)-3-cyclopropyl-N-methyl-2-(2,2,2-trifluoroacetamido)propanamide] | > 1000 nM | > 10 µM | > 1000 nM |  | < 20 nM |  | < 100 nM
5 | CC(C)CC(C(=O)N1C[C@]2(C[C@H]1C#N)C(=O)Nc1c3c(nn12)CCCC3)N(C)C(=O)[C@H](C)NC(=O)C(F)(F)F (stereo in doubt) [Example 28, (2S)—N-[(2S)-1-[(3R,5'S)-5′-cyano-2-oxo-6,7,8,9-tetrahydro-1H-spiro[imidazo[1,2-b]indazole-3,3′-pyrrolidin]-1′-yl]-4-methyl-1-oxopentan-2-yl]-N-methyl-2-(2,2,2-trifluoroacetamido)propanamide] | > 1000 nM | > 10 µM | > 1000 nM |  | < 20 nM |  | < 100 nM
6 | CN(C(=O)[C@H](CC1CC1)NC(=O)C(F)(F)F)C(CC1CC1)C(=O)N1C[C@]2(Cc3ccccc3NC2=O)C[C@H]1C#N (stereo in doubt) [Example 33, (S)—N—((S)-1-((3S,5S)-5-cyano-2′-oxo-1′,4′-dihydro-2′H-spiro[pyrrolidine-3,3′-quinolin]-1-yl)-3-cyclopropyl-1-oxopropan-2-yl)-3-cyclopropyl-N-methyl-2-(2,2,2-trifluoroacetamido)propanamide] |  | > 10 µM | > 1000 nM |  | < 20 nM | < 100 nM | 100 to 1000 nM
7 | CC(C)C[C@@H](C(=O)N1C[C@]2(CCNC2=O)C[C@H]1C#N)N(C)C(=O)[C@H](C)NC(=O)C(F)(F)F [Compound 8, (S)—N—((S)-1-((3S,5S)-3-cyano-6-oxo-2,7-diazaspiro[4.4]nonan-2-yl)-4-methyl-1-oxopentan-2-yl)-N-methyl-2-(2,2,2-trifluoroacetamido)propanamide] |  | > 10 µM | > 1000 nM |  | 20 to 200 nM | 1000 to 10000 nM | 1000 to 10000 nM
8 | CC(C)C[C@@H](C(=O)N1C[C@]2(CCCNC2=O)C[C@H]1C#N)N(C)C(=O)[C@H](C)NC(=O)C(F)(F)F [Compound 11] |  | > 10 µM | > 1000 nM |  | 20 to 200 nM | 100 to 1000 nM | 1000 to 10000 nM
